# Test results published in ChEMBL document CHEMBL4610106, “Identification of the Clinical Development Candidate MRTX849, a Covalent KRASG12C Inhibitor for the Treatment of Cancer” (J Med Chem, 2020).
# Assays:
# [1] = Half life in beagle dog at 3 mg/kg, iv; assay type: ADME, organism-based, Canis lupus familiaris; conditions: in vivo
# [2] = AUC (infinity) in rat at 30 mg/kg, po; assay type: ADME, organism-based; set-up: dose 30 mg/kg, time infinity, route oral; conditions: in vivo
# [3] = Protein binding in mouse plasma; assay type: ADME, cell-free; conditions: read-out: PPB (converted)
# [4] = Half life in CD1 mouse at 3 mg/kg, iv; assay type: ADME, organism-based; conditions: in vivo
# [5] = Protein binding in human plasma; assay type: ADME, cell-free; conditions: read-out: PPB (converted)
# [6] = Half life in human whole blood at 5 uM by LC-MS/MS analysis; assay type: ADME, tissue-based
# [7] = Drug metabolism in mouse hepatocytes assessed as peak area for metabolite formed due to biotransformation (dealkylation; GSH) at 10 uM incubated for 2 hrs by LC-MS analysis; assay type: ADME, cell-based, Hepatocyte
# MIA PaCa-2 = assay: Antitumor activity against human MIAPaCa2 cells xenografted in athymic nude-Foxn1nu mouse assessed as maximally efficacious dose for induction of tumor regression at 10 to 100 mg/kg, po dosed daily via gavage for 16 days; assay type: functional
# [8] = Cmax in rat at 30 mg/kg, po; assay type: ADME, organism-based; set-up: dose 30 mg/kg, route oral; conditions: in vivo
# [9] = AUC (infinity) in CD1 mouse at 30 mg/kg, po; assay type: ADME, organism-based; set-up: dose 30 mg/kg, time infinity, route oral; conditions: in vivo
# [10] = Drug metabolism in mouse hepatocytes assessed as peak area for metabolite formed due to biotransformation (glucuronide; GSH) at 10 uM incubated for 2 hrs by LC-MS analysis; assay type: ADME, cell-based, Hepatocyte
# [11] = AUC (infinity) in beagle dog at 30 mg/kg, po; assay type: ADME, organism-based, Canis lupus familiaris; set-up: dose 30 mg/kg, route oral, time infinity; conditions: in vivo
# [12] = Clearance in CD1 mouse at 3 mg/kg, iv; assay type: ADME, organism-based; conditions: in vivo
# [13] = Tmax in rat at 30 mg/kg, po; assay type: ADME, organism-based; conditions: in vivo
# [14] = Solubility in FaSSIF at pH 6.5; assay type: physicochemical
# [15] = Cmax in beagle dog at 30 mg/kg, po; assay type: ADME, organism-based, Canis lupus familiaris; set-up: dose 30 mg/kg, route oral; conditions: in vivo
# [16] = Half life in rat at 3 mg/kg, iv; assay type: ADME, organism-based; conditions: in vivo
# [17] = Drug metabolism in mouse hepatocytes assessed as peak area for metabolite formed due to biotransformation (glucuronide) at 10 uM incubated for 2 hrs by LC-MS analysis; assay type: ADME, cell-based, Hepatocyte
# [18] = Tmax in CD1 mouse at 30 mg/kg, po; assay type: ADME, organism-based; conditions: in vivo
# [19] = Apparent permeability in pig LLC-PK1 cells; assay type: ADME, cell-based, Sus scrofa; conditions: read-out: permeability
# in vivo [20] = conditions: rat, po, 30 mg/kg
# [21] = Volume of distribution at steady state in beagle dog at 3 mg/kg, iv; assay type: ADME, organism-based, Canis lupus familiaris; conditions: in vivo, read-out: Vdss
# [22] = Half life in dog whole blood at 5 uM by LC-MS/MS analysis; assay type: ADME, tissue-based, Canis lupus familiaris
# [23] = Clearance in beagle dog at 3 mg/kg, iv; assay type: ADME, organism-based, Canis lupus familiaris; conditions: in vivo
# [24] = Drug metabolism in mouse hepatocytes assessed as peak area for metabolite formed due to biotransformation (dealkylation; glucuronide; GSH) at 10 uM incubated for 2 hrs by LC-MS analysis; assay type: ADME, cell-based, Hepatocyte
# [25] = Cmax in CD1 mouse at 30 mg/kg, po; assay type: ADME, organism-based; set-up: dose 30 mg/kg, route oral; conditions: in vivo
# [26] = Drug metabolism in mouse hepatocytes assessed as peak area for metabolite formed due to biotransformation (dealkylation; glucuronide) at 10 uM incubated for 2 hrs by LC-MS analysis; assay type: ADME, cell-based, Hepatocyte
# [27] = Drug metabolism in mouse hepatocytes assessed as peak area for metabolite formed due to biotransformation (sulfate) at 10 uM incubated for 2 hrs by LC-MS analysis; assay type: ADME, cell-based, Hepatocyte
# [28] = Volume of distribution at steady state in CD1 mouse at 3 mg/kg, iv; assay type: ADME, organism-based; conditions: in vivo, read-out: Vdss
# [29] = Drug metabolism in mouse hepatocytes assessed as peak area for metabolite formed due to biotransformation ( GSH) at 10 uM incubated for 2 hrs by LC-MS analysis; assay type: ADME, cell-based, Hepatocyte
# [30] = Half life in mouse whole blood at 5 uM by LC-MS/MS analysis; assay type: ADME, tissue-based
# [31] = Tmax in beagle dog at 30 mg/kg, po; assay type: ADME, organism-based, Canis lupus familiaris; conditions: in vivo
# in vivo [32] = conditions: beagle, dog, po, 30 mg/kg
# [33] = Toxicity in athymic nude-Foxn1nu mouse xenografted with human MIAPaCa2 cells assessed as induction of body weight loss at 10 to 100 mg/kg, po dosed daily via gavage for 16 days; assay type: organism-based, MIA PaCa-2; conditions: in vivo, 384 h
# [34] = Volume of distribution at steady state in rat at 3 mg/kg, iv; assay type: ADME, organism-based; conditions: in vivo
smiles,measurement,setting,value
C=C(F)C(=O)N1CCN(c2nc(OC[C@@H]3CCCN3C)nc3c2CCN(c2cccc4cccc(Cl)c24)C3)C[C@@H]1CC#N [ADAGRASIB],half-life,[1],7.56 h
same,AUC(0-inf),[2],2670 ng·h/mL
same,fraction unbound,[3],0.01
same,half-life,[4],1.51 h
same,fraction unbound,[5],0.017
same,half-life at 5 µM,[6],> 50 h
same,Drug metabolism,[7],Metabolite_Notdetected
same,Activity,MIA PaCa-2,30 to 100 mg/kg
same,Cmax,[8],209 ng/mL
same,AUC(0-inf),[9],15900 ng·h/mL
same,Drug metabolism,[10],Metabolite_Notdetected
same,AUC(0-inf),[11],4470 ng·h/mL
same,clearance,[12],19.9 mL/min/kg
same,Tmax,[13],2.67 h
same,solubility,[14],568 µg/mL
same,Cmax,[15],252 ng/mL
same,t1/2,[16],2.57 h
same,Drug metabolism,[17],Metabolite_Notdetected
same,Tmax,[18],1 h
same,Papp,[19],4.7 ×10⁻⁶ cm/s
same,bioavailability,in vivo [20],29.7%
same,Vd,[21],17.4 L/kg
same,half-life at 5 µM,[22],> 50 h
same,clearance,[23],29.6 mL/min/kg
same,Drug metabolism,[24],Metabolite_Notdetected
same,Cmax,[25],2410 ng/mL
same,Drug metabolism,[26],Metabolite_Notdetected
same,Drug metabolism,[27],Metabolite_Notdetected
same,Vd,[28],2.02 L/kg
same,Drug metabolism,[29],Metabolite_Notdetected
same,half-life at 5 µM,[30],> 50 h
same,Tmax,[31],4 h
same,bioavailability,in vivo [32],25.9%
same,Activity,[33],Non-Toxic
same,Vdss,[34],20.7 L/kg
